Here are results for 20 molecules from US20070287699A1, “ANTIVIRAL AGENTS” (ViroBay, Inc., priority 2006, published 2007).

A value given as a limit tells only on which side of the number the result lay.

For this assay, the system named is HCV replicon RNA replication in human Huh7 hepatoma cells. The assay is described as follows: HCV replicon assay (activity levels from either or both of HCV replicon assay 1, Huh7/Clone A RT-qPCR, and assay 2, Huh7 ET luc-ubi-neo/ET). In kind it is cell-based, Hepatitis C virus (HCV). As to conditions: Hepatitis C virus, Huh-7, either or both HCV replicon assays: Huh7/Clone A, 48 hours, 72 hours, Luc activity or RT-PCR, read-out: inhibit HCV replication at IC50 levels or estimated IC50 levels. An excerpt:
The HCV replicon assay is a cell-culture system that mimics in vivo HCV replication and provides a system to study HCV replication in vitro. It was created by transfecting cloned viral RNA derived from a consensus HCV genomic sequence into human Huh7 hepatoma cells that are semi-permissive for viral RNA production (Lohmann V., Korner F., Koch J.-O., Herian U., Theilmann L. and Bartenschlager R. (1999). Replication of subgenomic Hepatitis C virus RNAs in a hepatoma cell line. Science 285, 110-113 and Blight K. J., Kolykhalov A. A. and Rice C. M. (2000). Efficient initiation of HCV RNA Replication in cell culture. Science 290, […]). These transfected cell lines contain a subgenomic HCV RNA genome that includes (1) the HCV 5′NTR fused to 12 amino acids of the capsid coding region, (2) the neomycin phosphotransferase gene (Neo) as a selectable marker, (3) the internal ribosome entry site (IRES) from encephalomyocarditis virus (EMCV) that directs translation of HCV non-structural proteins (variously NS2 or NS3 to NS5B), and (4) the 3′ NTR. Replicon-containing cells autonomously and persistently replicate HCV RNA that can be measured quantitatively by real-time qPCR. Therefore, the replicon system facilitates quantitative assessment of anti-viral activity by monitoring changes in HCV RNA replication in a cell-based assay.
HCV replicon-containing cells (Huh7/Clone A) were routinely maintained in Clone A growth medium (DMEM medium [Invitrogen], supplemented with 10% Fetal Bovine Serum, 1% Non Essential Amino Acids and 1 g/L G418). Test compounds were dissolved in dimethyl sulfoxide (DMSO) to make 200× stock solutions for all doses prior to treatment.
For the HCV replicon assay, Huh7/Clone A cells were trypsinized from culture flasks, seeded in 1 ml of Clone A growth medium without G418 at 4×10^4 cells per well in 24-well plates and incubated at 37° C. in a humidified CO2 (5%) incubator overnight. Following overnight incubation, compound solutions were added into wells in the same volume (5 μl of 200× compound stock per well) to give a final DMSO concentration of 0.5%. Three wells on each plate supplemented with 5 μl of DMSO served as untreated controls. For IC50 determinations, compounds were tested at 7 serial dilutions in triplicates from the starting stock solutions. The plates were incubated at 37° C. for 48 hours. After incubation, cells were harvested, transferred to 96-well plates, and subjected to total RNA extraction using the RNA Isolation Kit (RNeasy 96, Qiagen) according to the protocol described by the manufacture's RNeasy 96 Handbook (Qiagen).
Total RNA eluted in 130 μl of RNase-free dH2O was quantitated by the RiboGreen Assay according to the supplier's protocol (Molecular Probe). Briefly, 5 μl of RNA samples were aliquoted in duplicate to a 96-well black microplate and a 96-well TaqMan Optical plate. RNA samples in the black microplate were mixed with 95 μl of diluted RiboGreen:reagent (1:250 dilution in TE buffer) and sample fluorescence was measured using a fluorescence microplate reader at standard fluorescein wavelengths (excitation ˜480 nm, emission ˜520 nm). Ribosomal RNA (Molecular Probe) was used as standard.
TaqMan quantitative PCR (RT-qPCR) was used to quantitate the amount of HCV replicon RNA in each sample. The RT-qPCR reactions were performed in 25 μl on an ABI PRISM 7900 HT Sequence Detection System (Applied Biosystems). The reaction mixture contained 5 μl of total RNA (10-100 ng), 1× TaqMan Buffer A (Applied Biosystems), 5.5 mM MgCl2, 1.2 mM dNTP mix, 0.625 U of AmpliTaq Gold (Applied Biosystems), 5 U of MMLV reverse transcriptase (Promega), 5 U of rRNasin (Promega), 300 nM each of the forward and reverse primers, and 100 nM TaqMan MGB probe. Primers and probe were designed to hybridize to a portion of the neomycin resistance gene (neo) in the replicon and the sequences are as follows: forward primer 5′-GGCTACCTGCCCATTCGA-3′; reverse primer 5′-CCGGCTTCCATCCGAGTAC-3′; MGB probe 5′-CCACCAAGCGAAACA-3′. […]
`CN1CCN(c2cc3c(cc2F)c(=O)c(-c2noc(C(CCCC#N)c4ccccc4)n2)cn3Cc2ccc(C(F)(F)F)cc2F)CC1` (centres unmarked) [Compound 88a, 5-{3-[6-fluoro-1-(2-fluoro-4-trifluoromethyl-benzyl)-7-(4-methyl-piperazin-1-yl)-4-oxo-1,4-dihydro-quinolin-3-yl]-[1,2,4]oxadiazol-5-yl}-5-phenyl-pentanenitrile]: the half-inhibitory concentration (IC50) is under 500 nM.

Turning to `Cc1cccc(Cc2nc(-c3cn(CC4CCCCC4)c4cc(N5CCN(C)CC5)c(F)cc4c3=O)no2)c1` [Compound 19, 1-cyclohexylmethyl-6-fluoro-3-[5-(3-methyl-benzyl)-[1,2,4]oxadiazol-3-yl]-7-(4-methyl-piperazin-1-yl)-1H-quinolin-4-one], the half-maximal inhibitory concentration (IC50) was under 10000 nM. Take `CN1CCN(c2cc3c(cc2F)c(=O)c(-c2noc(C(C)(C)c4ccccc4)n2)cn3Cc2ccc(Cl)nc2)CC1` [Compound 92, 1-(6-chloro-pyridin-3-ylmethyl)-6-fluoro-3-[5-(1-methyl-1-phenyl-ethyl)-[1,2,4]oxadiazol-3-yl]-7-(4-methyl-piperazin-1-yl)-1H-quinolin-4-one]: the IC50 is under 500 nM. For `CC(C)(C)c1ccc(Cn2cc(-c3noc(Cc4ccccc4)n3)c(=O)c3cc(F)c(N4CCCNCC4)cc32)cc1` [Compound 102, 3-(5-benzyl-[1,2,4]oxadiazol-3-yl)-1-(4-tert-butyl-benzyl)-7-[1,4]diazepan-1-yl-6-fluoro-1H-quinolin-4-one] the value was under 2000 nM. Consider `COc1cc2c(=O)c(-c3nnc(Cc4ccc(Cl)cc4)o3)cn(Cc3ccc(Cl)cc3)c2cc1OC` [Compound 162, 1-(4-chloro-benzyl)-3-[5-(4-chloro-benzyl)-[1,3,4]oxadiazol-2-yl]-6,7-dimethoxy-1H-quinolin-4-one], for which the 50% inhibitory concentration (IC50) is over 10000 nM. For `CC(C)(c1ccccc1)c1nnc(-c2cn(Cc3ccc(C(F)(F)F)cc3)c3cc(N4CCOCC4)c(F)cc3c2=O)o1` [Compound 167, 6-fluoro-7-morpholino-3-(5-(2-phenylpropan-2-yl)-1,3,4-oxadiazol-2-yl)-1-(4-(trifluoromethyl)benzyl)quinolin-4(1H)-one] the value was under 2000 nM; for `CN1CCN(c2cc3c(cc2F)c(=O)c(-c2noc(C(C)(C)c4ccccc4)n2)cn3Cc2ccc(C(F)(F)F)cc2F)CC1` [Compound 77, 6-fluoro-1-(2-fluoro-4-trifluoromethyl-benzyl)-3-[5-(1-methyl-1-phenyl-ethyl)-[1,2,4]oxadiazol-3-yl]-7-(4-methyl-piperazin-1-yl)-1H-quinolin-4-one], under 500 nM.

For `O=c1c(-c2ncc(Cc3ccccc3)o2)cn(Cc2ccc(Cl)cc2)c2ccc(OCCCN3CCOCC3)cc12` [Compound 176, 3-(5-benzyl-oxazol-2-yl)-1-(4-chloro-benzyl)-6-(3-morpholin-4-yl-propoxy)-1H-quinolin-4-one], the concentration for half-maximal inhibition (IC50) was under 10000 nM. In the case of `O=c1c(-c2noc(Cc3ccccc3)n2)cn(Cc2ccc(C(F)(F)F)cc2)c2cc(N3CCCNCC3)c(F)cc12` [Compound 71, 3-(5-benzyl-[1,2,4]oxadiazol-3-yl)-7-[1,4]diazepam-1-yl-6-fluoro-1-(4-trifluoromethyl-benzyl)-1H-quinolin-4-one], the IC50 was under 500 nM. The figure for `COc1cc2c(=O)c(-c3nnc(Cc4ccc(Cl)cc4)o3)cn(CC3CCCCC3)c2cc1OC` [Compound 163, 3-[5-(4-chloro-benzyl)-[1,3,4]oxadiazol-2-yl]-1-cyclohexylmethyl-6,7-dimethoxy-1H-quinolin-4-one] is over 10000 nM; for `O=C(O)c1ccc2c(c1)c(=O)c(-c1noc(Cc3ccccc3)n1)cn2Cc1ccc(C(F)(F)F)cc1F` [Compound 43, 3-(5-benzyl-[1,2,4]oxadiazol-3-yl)-1-(2-fluoro-4-trifluoromethyl-benzyl)-4-oxo-1,4-dihydro-quinoline-6-carboxylic acid] it is over 10000 nM; for `CC(C)(c1ccc(F)cc1)c1nc(-c2cn(Cc3ccc(C(F)(F)F)cc3)c3cc(N4CCNC(=O)C4)c(F)cc3c2=O)no1` [Compound 125, 6-fluoro-3-(5-(2-(4-fluorophenyl)propan-2-yl)-1,2,4-oxadiazol-3-yl)-7-(3-oxopiperazin-1-yl)-1-(4-(trifluoromethyl)benzyl)quinolin-4(1H)-one] it is under 500 nM. On to `CC(C)(c1ccccc1)c1nc(-c2cn(Cc3ccc(C(F)(F)F)cc3)c3cc(N4CCSCC4)c(F)cc3c2=O)no1` [Compound 101, 6-fluoro-3-[5-(1-methyl-1-phenyl-ethyl)-[1,2,4]oxadiazol-3-yl]-7-thiomorpholin-4-yl-1-(4-trifluoromethyl-benzyl)-1H-quinolin-4-one], for which the IC50 was under 500 nM.

As for `CN(C)c1cc2c(cc1F)c(=O)c(-c1noc(C(C)(C)c3ccccc3)n1)cn2Cc1ccc(F)cc1` [Compound 154, 7-(dimethylamino)-6-fluoro-1-(4-fluorobenzyl)-3-(5-(2-phenylpropan-2-yl)-1,2,4-oxadiazol-3-yl)quinolin-4(1H)-one], the IC50 was under 2000 nM. As for `CC(C)(c1ccc(F)cc1)c1nnc(-c2cn(Cc3ccc(C(F)(F)F)cc3)c3cc(N4CCOCC4)c(F)cc3c2=O)o1` [Compound 161, 6-fluoro-3-(5-(2-(4-fluorophenyl)propan-2-yl)-1,3,4-oxadiazol-2-yl)-7-morpholino-1-(4-(trifluoromethyl)benzyl)quinolin-4(1H)-one], the IC50 is under 2000 nM. For the molecule `O=c1c(-c2noc(Cc3ccccc3)n2)cn(Cc2ccc(C(F)(F)F)cc2)c2cc(NCCN3CCOCC3)c(F)cc12` [Compound 72, 3-(5-benzyl-[1,2,4]oxadiazol-3-yl)-6-fluoro-7-(2-morpholin-4-yl-ethylamino)-1-(4-trifluoromethyl-benzyl)-1H-quinolin-4-one], the 50% inhibitory concentration (IC50) is under 2000 nM. As for `CN(C)c1cc2c(cc1F)c(=O)c(-c1noc(Cc3ccccc3)n1)cn2Cc1ccc(C(F)(F)F)cc1` [Compound 74, 3-(5-benzyl-[1,2,4]oxadiazol-3-yl)-7-dimethylamino-6-fluoro-1-(4-trifluoromethyl-benzyl)-1H-quinolin-4-one], the 50% inhibitory concentration (IC50) is under 2000 nM.

For the molecule `CN1CCCN(c2nc3c(cc2F)c(=O)c(-c2noc(C(C)(C)c4ccccc4)n2)cn3Cc2ccc(C(F)(F)F)cc2)CC1` [Compound 103, 6-fluoro-7-(4-methyl-[1,4]diazepan-1-yl)-3-[5-(1-methyl-1-phenyl-ethyl)-[1,2,4]oxadiazol-3-yl]-1-(4-trifluoromethyl-benzyl)-1H-[1,8]naphthyridin-4-one], the IC50 is under 2000 nM. Consider `CN1CCN(c2cc3c(cc2F)c(=O)c(-c2noc(Cc4ccc(F)cc4)n2)cn3Cc2ccc(Cl)cc2)CC1` [Compound 28, 1-(4-chloro-benzyl)-6-fluoro-3-[5-(4-fluoro-benzyl)-[1,2,4]oxadiazol-3-yl]-7-(4-methyl-piperazin-1-yl)-1H-quinolin-4-one], for which the IC50 was under 2000 nM. Take `CN1CCN(c2cc3c(cc2F)c(=O)c(-c2noc(Cc4ccc(F)cc4)n2)cn3Cc2c(F)cccc2Cl)CC1` [Compound 42, 1-(2-chloro-6-fluoro-benzyl)-6-fluoro-3-[5-(4-fluoro-benzyl)-[1,2,4]oxadiazol-3-yl]-7-(4-methyl-piperazin-1-yl)-1H-quinolin-4-one]: the IC50 is under 10000 nM.
